For test [1], the system named is Human neural stem cells (hNSCs). Put plainly: Neuronal differentiation of human neural stem cells (TUJ-1 staining), concentration response and combination index. In kind it is cell-based. The procedure:
Mitogen-free test media with a positive control for neuronal differentiation was used along with basal media without growth factors as a negative control.
To determine the most efficacious dose and dose ratio of D-cycloserine in combination with pindolol or (S)-(−)-pindolol for future preclinical and clinical studies, dose ranging studies were conducted examining synergy for neurogenesis. […] The pindolol or (S)-(−)-pindolol concentrations were varied based on the respective ratios tested. Individual dose response curves were prepared for each concentration ratio as previously described with cells stained with TUJ-1 antibody for the detection of neuronal differentiation.
The presence of synergy was determined by use of a combination index (CI). […] The CI is a quantitative measure of the nature of drug interactions, comparing the EC50's of two compounds, when each is assayed alone, to the EC50 of each compound when assayed in combination. The combination index (CI) is equal to the following formula: […]
where C1 and C2 are the concentrations of a first and a second compound, respectively, resulting in 50% activity in neuronal differentiation when assayed in combination; and IC1 and IC2 are the concentrations of each compound resulting in 50% activity when assayed independently.

Test [2] has as its system KA, AMPA, and NMDA iGlu receptors. Particulars: cited from earlier work.
The target in test [3] is human mGlu2 (Homo sapiens, UniProt Q14416). Particulars: in vitro; low nanomolar range; read-out: EC50 against human mGlu2 receptor; cited from earlier work.
The target of test [4] is human mGlu3 (Homo sapiens, UniProt Q14832). The following applies: in vitro; low nanomolar range; read-out: EC50 against human mGlu3 receptor; cited from earlier work.
Test [5] deals with mGluR2 (Homo sapiens, UniProt Q14416). The following applies: read-out: IC50 against mGluR2; cited from earlier work.
In test [6] the test system is Group I or Group III receptors. Particulars: at sub-mM concentrations; cited from earlier work.
For test [7], the target named is mGluR3 (Homo sapiens, UniProt Q14832). The following applies: read-out: IC50 against mGluR3; cited from earlier work.
[8] abbreviates: Homo sapiens, Neural stem cell, agent run independently, % of neuronal positive control, basal media subtracted, figure legends, read-out: EC50 when used alone, neuronal differentiation.

pEC50, pIC50: −log10 of the molar value. Several values for one entry are separate records, joined by “and”; a condition that tells them apart may be missing. Equal entries are not always repeated. Where two headings read alike, the source gives them in different places. Some results are limits rather than exact numbers.

Chain of human mGlu2 (Q14416 19-872): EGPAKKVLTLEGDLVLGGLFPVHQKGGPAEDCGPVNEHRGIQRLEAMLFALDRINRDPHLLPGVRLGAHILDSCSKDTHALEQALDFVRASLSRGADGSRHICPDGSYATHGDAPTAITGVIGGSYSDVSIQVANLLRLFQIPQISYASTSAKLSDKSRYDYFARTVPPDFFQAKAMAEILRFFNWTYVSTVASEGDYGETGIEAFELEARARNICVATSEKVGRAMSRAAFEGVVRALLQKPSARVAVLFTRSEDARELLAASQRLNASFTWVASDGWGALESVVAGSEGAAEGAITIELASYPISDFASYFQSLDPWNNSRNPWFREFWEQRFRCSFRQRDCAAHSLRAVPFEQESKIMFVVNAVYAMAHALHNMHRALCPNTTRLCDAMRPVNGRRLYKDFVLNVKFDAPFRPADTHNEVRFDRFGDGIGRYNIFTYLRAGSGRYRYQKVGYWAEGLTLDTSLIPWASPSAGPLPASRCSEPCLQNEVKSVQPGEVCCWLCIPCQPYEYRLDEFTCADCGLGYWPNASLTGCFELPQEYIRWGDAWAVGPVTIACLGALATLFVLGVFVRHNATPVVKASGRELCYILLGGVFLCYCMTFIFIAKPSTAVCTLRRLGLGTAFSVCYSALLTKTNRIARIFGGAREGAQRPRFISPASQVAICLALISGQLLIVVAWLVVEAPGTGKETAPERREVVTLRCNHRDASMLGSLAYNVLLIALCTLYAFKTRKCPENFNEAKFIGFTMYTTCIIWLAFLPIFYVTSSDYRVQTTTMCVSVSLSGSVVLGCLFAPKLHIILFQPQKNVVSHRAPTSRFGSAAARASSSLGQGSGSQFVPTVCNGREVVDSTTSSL
Chain of mGluR2 (Q14416 19-872): as above
Chain of mGluR3 (Q14832 23-879): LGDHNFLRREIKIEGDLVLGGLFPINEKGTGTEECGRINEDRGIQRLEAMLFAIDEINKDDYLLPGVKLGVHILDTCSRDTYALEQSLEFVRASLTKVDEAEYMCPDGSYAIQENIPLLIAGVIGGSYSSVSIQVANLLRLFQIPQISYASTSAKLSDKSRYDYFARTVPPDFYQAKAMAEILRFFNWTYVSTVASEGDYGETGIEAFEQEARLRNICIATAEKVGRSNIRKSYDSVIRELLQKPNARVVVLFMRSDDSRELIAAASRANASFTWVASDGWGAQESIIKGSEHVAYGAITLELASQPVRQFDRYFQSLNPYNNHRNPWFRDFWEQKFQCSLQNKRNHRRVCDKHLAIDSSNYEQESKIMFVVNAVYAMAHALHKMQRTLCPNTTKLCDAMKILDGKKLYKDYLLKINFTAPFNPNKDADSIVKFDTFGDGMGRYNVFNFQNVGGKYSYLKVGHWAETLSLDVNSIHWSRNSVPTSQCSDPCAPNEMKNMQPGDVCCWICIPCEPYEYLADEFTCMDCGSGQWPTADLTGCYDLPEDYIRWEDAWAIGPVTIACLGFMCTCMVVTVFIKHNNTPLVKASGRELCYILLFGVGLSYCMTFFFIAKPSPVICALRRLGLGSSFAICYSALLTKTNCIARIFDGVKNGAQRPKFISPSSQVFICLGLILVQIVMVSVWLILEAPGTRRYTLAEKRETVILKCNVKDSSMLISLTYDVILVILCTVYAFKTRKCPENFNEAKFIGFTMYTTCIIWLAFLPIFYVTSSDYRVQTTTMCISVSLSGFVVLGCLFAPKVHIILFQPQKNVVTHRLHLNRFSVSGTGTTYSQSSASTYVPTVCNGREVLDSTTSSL
Chain of human mGlu3 (Q14832 23-879): as above

`CC(C)NC[C@H](O)COc1cccc2[nH]ccc12` [(S)-(−)-Pindolol]: the negative-log EC50 (pEC50) was 5.55 and 5.74 and 5.75 in test [1] (Table 2, (S)-(−)-pindolol alone, run with the ratio of that row, read-out: Solo EC50's (S)-(−)-Pindolol); 5.74 in test [1] (agent run independently, % of neuronal positive control, basal media subtracted, figure legends, read-out: EC50 when used alone, neuronal differentiation).

Regarding `CC(C)(C)NCC(O)COc1cccc2c1CC(O)C(O)C2` (centres unmarked) [nadolol], the pEC50 in test [1] (setting [8]) was 5.17.

For `N[C@](CC1c2ccccc2Oc2ccccc21)(C(=O)O)[C@H]1C[C@@H]1C(=O)O` [LY341495, (2S)-2-amino-2-(1S,2S-2-carboxycycloprop-1-yl)-3-(xanth-9-yl) propanoic acid], the “activity against KA, AMPA, and NMDA iGlu receptors” value in test [2] was “substantially inactive”.

Regarding `CCC(=O)c1c(O)cc(O)cc1O` [flopropione], the pEC50 in test [1] (setting [8]) was 4.78.

On to `NC(=O)C[S+]([O-])C(c1ccccc1)c1ccccc1` (centres unmarked) [modafinil], for which the pEC50 in test [1] (Homo sapiens, Neural stem cell, read-out: EC50 when used alone, neuronal differentiation) was 4.96.

On to `N[C@@]1(C(=O)O)CO[C@H]2[C@H](C(=O)O)[C@H]21` [LY379268, (−)-2-Oxa-4-aminobicyclohexane-4,6-dicarboxylic acid], for which the pEC50 in test [3] and in test [4] was > 8.00 each time.

As for `COCCOC(=O)C1=C(C)NC(C)=C(C(=O)OC(C)C)C1c1cccc([N+](=O)[O-])c1` (centres unmarked) [nimodipine], in test [1] (setting [8]), the pEC50 was 4.00.

For `N[C@@H]1CONC1=O` [D-cycloserine, (4R)-4-amino-1,2-oxazolidin-3-one], the pEC50 in test [1] (Homo sapiens, Neural stem cell, Table 1, D-cycloserine alone, run with the ratio of that row, read-out: Solo EC50's D-cycloserine) is 5.10; in test [1] (Homo sapiens, Neural stem cell, Table 2, D-cycloserine alone, run with the ratio of that row, read-out: Solo EC50's D-cycloserine) it was 5.25; in test [1] (Table 1, D-cycloserine alone, run with the ratio of that row, read-out: Solo EC50's D-cycloserine), 5.07 and 5.13; in test [1] (Table 2, D-cycloserine alone, run with the ratio of that row, read-out: Solo EC50's D-cycloserine), 5.07.

With `NC1(C(=O)O)CCc2cc(P(=O)(O)O)ccc21` (racemic) [APICA, (RS)-1-amino-5-phosphonoindan-1-carboxylic acid], the pIC50 in test [5] and in test [7] was ~4.52 throughout. In addition, the “activity against Group I or Group III receptors” value in test [6] was “no appreciable activity”.

In the case of `CC(=O)N[C@@H](CS)C(=O)O` [N-acetyl-L-cysteine], in test [1] (setting [8]), the pEC50 is 3.94.

For `CC(C)NCC(O)COc1cccc2[nH]ccc12` (centres unmarked) [Pindolol], the pEC50 was 5.84 in test [1] (Homo sapiens, Neural stem cell, Table 1, pindolol alone, run with the ratio of that row, read-out: Solo EC50's Pindolol); 5.85 in test [1] (setting [8]); 5.88 and 5.70 and 5.78 in test [1] (Table 1, pindolol alone, run with the ratio of that row, read-out: Solo EC50's Pindolol).

Regarding `CC(CCc1ccccc1)NCC(O)c1ccc(O)c(C(N)=O)c1` (centres unmarked) [labetalol], the pEC50 in test [1] (setting [8]) was 5.26.

Consider `CC1(C)O[C@@H]2[C@@H](CO[C@@]3(COS(N)(=O)=O)OC(C)(C)O[C@@H]23)O1` [topiramate], for which, in test [1] (setting [8]), the negative logarithm of the EC50 (pEC50) is 5.15.

For the molecule `Nc1nc2ncc(CNc3ccc(C(=O)N[C@@H](CCC(=O)O)C(=O)O)cc3)nc2c(=O)[nH]1` [folic acid], in test [1] (setting [8]), the pEC50 was 5.96.

The values are drawn from US20100216805A1, “MODULATION OF NEUROGENESIS USING D-CYCLOSERINE COMBINATIONS” (BrainCells, Inc., priority 2009, published 2010).
